Several values for one entry are separate records, joined by “and”; a condition that tells them apart may be missing. Identical values can stand only once.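 How tested: cells in 96-well plates exposed to compound for 48 hours at five concentrations. GI50 marks 50% less growth.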 Activity calls are given as the source filed them. No stated cut-off is given here; in the data, active = GI50 up to about 1.1 µM and inactive = higher.
Key:
Experiment in all cases: DTP human tumour cell line panel, 48 h
CAKI-1 = tested on: CAKI-1
DU-145 = tested on: DU-145
LOX IMVI = tested on: LOX IMVI
MCF7 = tested on: MCF7
MDA-MB-435 = tested on: MDA-MB-435
MDA-N = tested on: MDA-N
Malme-3M = tested on: Malme-3M
NCI-H23 = tested on: NCI-H23
OVCAR-5 = tested on: OVCAR-5
PC-3 = tested on: PC-3
RPMI-8226 = tested on: RPMI-8226
RXF 393 = tested on: RXF 393
SF-539 = tested on: SF-539
SK-MEL-5 = tested on: SK-MEL-5
SN12C = tested on: SN12C
SW-620 = tested on: SW-620
TK-10 = tested on: TK-10
U-251 = tested on: U-251
UACC-257 = tested on: UACC-257
BT-549 = tested on: BT-549

Measured: GI50

Cc1cn(C2C=CC(COP(=O)(OCC3=CC(=O)c4ccccc4C3=O)N(C)CCCCCl)O2)c(=O)[nH]c1=O (stereo not drawn)
active: Malme-3M 0.363 µM | SK-MEL-5 0.813 µM
inactive: CAKI-1 13.2 µM | DU-145 1.57 µM | LOX IMVI 2.38 µM | MCF7 6.98 µM | MDA-MB-435 1.94 µM | MDA-N 2.21 µM | NCI-H23 2.39 µM | OVCAR-5 12.1 µM | PC-3 12.1 µM | RPMI-8226 5.05 µM | RXF 393 2.5 µM | SF-539 13.1 µM | SN12C 11.6 µM | SW-620 5.13 µM | TK-10 20.7 µM | U-251 5.38 µM | UACC-257 3.25 µM

COC(=O)N[C@H](C(=O)O)C(C)O[Si](C)(C)C(C)(C)C (stereo partly drawn)
inactive: BT-549 > 100 µM | DU-145 > 100 µM | LOX IMVI > 100 µM | MCF7 > 100 µM | MDA-MB-435 > 100 µM | Malme-3M > 100 µM | NCI-H23 > 100 µM | OVCAR-5 > 100 µM | PC-3 > 100 µM | RPMI-8226 > 100 µM | RXF 393 > 100 µM | SF-539 > 100 µM | SK-MEL-5 > 100 µM | SN12C > 100 µM | SW-620 > 100 µM | TK-10 > 100 µM | U-251 > 100 µM | UACC-257 > 100 µM

CC1(C)CNC(=O)C2(CCCO2)CNC(C)(C)CNC(=O)C2(CCCO2)CN1 (stereo not drawn)
inactive: BT-549 > 10 µM | CAKI-1 > 10 µM | DU-145 > 10 µM | LOX IMVI > 10 µM | MCF7 > 10 µM | MDA-MB-435 > 10 µM | Malme-3M > 10 µM | NCI-H23 > 10 µM | OVCAR-5 > 10 µM | PC-3 > 10 µM | RPMI-8226 > 10 µM | SF-539 > 10 µM | SK-MEL-5 > 10 µM | SN12C > 10 µM | SW-620 > 10 µM | TK-10 > 10 µM | U-251 > 10 µM | UACC-257 > 10 µM

N#Cc1nnc2ccccc2c1N
inactive: BT-549 > 100 µM | CAKI-1 > 100 µM | DU-145 > 100 µM | LOX IMVI > 100 µM | MCF7 > 100 µM | MDA-MB-435 > 100 µM | Malme-3M > 100 µM | NCI-H23 > 100 µM | OVCAR-5 > 100 µM | PC-3 > 100 µM | RPMI-8226 > 100 µM | SF-539 > 100 µM | SK-MEL-5 > 100 µM | SW-620 > 100 µM | TK-10 > 100 µM | U-251 > 100 µM | UACC-257 > 100 µM

O=C(O)CCC1C(=O)C2CCN1CC2 (stereo not drawn)
inactive: CAKI-1 > 100 µM | DU-145 > 100 µM | LOX IMVI > 100 µM | MCF7 > 100 µM | MDA-MB-435 > 100 µM | MDA-N > 100 µM | Malme-3M > 100 µM | NCI-H23 > 100 µM | OVCAR-5 > 100 µM | PC-3 > 100 µM | RPMI-8226 > 100 µM | RXF 393 > 100 µM | SF-539 > 100 µM | SK-MEL-5 > 100 µM | SN12C > 100 µM | SW-620 > 100 µM | TK-10 > 100 µM | U-251 > 100 µM | UACC-257 > 100 µM

C[C@H]1CCC/C=C/[C@@H]2C[C@H](O)C[C@H]2[C@H](O)/C=C/C(=O)O1 [BREFELDIN A]
active: LOX IMVI 13.2 nM and 12.3 nM | MCF7 < 16.4 nM and 26.3 nM | MDA-N 40.6 nM and 42.4 nM | Malme-3M 18.1 nM and 11.3 nM | NCI-H23 12.5 nM and 25.1 nM | OVCAR-5 < 24 nM and 44 nM | RXF 393 14.4 nM and 13.4 nM | SF-539 < 21.4 nM and 21.1 nM | SK-MEL-5 < 10 nM and 5.83 nM | SW-620 32.7 nM and < 17.4 nM | TK-10 36.7 nM and 40.8 nM | U-251 68.1 nM and 36.7 nM | UACC-257 27.5 nM and 16 nM

NC(=O)NC(=O)c1cnccn1
inactive: CAKI-1 > 100 µM | DU-145 > 100 µM | LOX IMVI > 100 µM | MCF7 > 100 µM | MDA-MB-435 > 100 µM | MDA-N > 100 µM | Malme-3M > 100 µM | NCI-H23 > 100 µM | OVCAR-5 > 100 µM | PC-3 > 100 µM | RPMI-8226 > 100 µM | RXF 393 > 100 µM | SF-539 > 100 µM | SK-MEL-5 > 10 µM | SN12C > 100 µM | SW-620 > 100 µM | TK-10 12.1 µM | U-251 > 100 µM | UACC-257 > 100 µM

CCOC(=O)CC(NCc1ccc(/N=C/c2nc3ccc(C(F)(F)F)cc3nc2-c2ccccc2)cc1)C(=O)OCC (stereo not drawn)
inactive: CAKI-1 > 100 µM | LOX IMVI > 100 µM | Malme-3M > 100 µM | NCI-H23 > 57.3 µM | OVCAR-5 > 100 µM | RPMI-8226 > 100 µM | RXF 393 15.2 µM | SF-539 17.9 µM | SK-MEL-5 > 78.7 µM | SN12C > 100 µM | SW-620 > 100 µM | TK-10 23.3 µM | U-251 21.8 µM | UACC-257 > 100 µM

O=C1CC2c3ccccc3CCC2c2ccccc21 (stereo not drawn)
inactive: CAKI-1 33.2 µM | DU-145 57.8 µM | LOX IMVI 15.8 µM | MCF7 24 µM | MDA-MB-435 19.3 µM | MDA-N 6.64 µM | NCI-H23 20.2 µM | OVCAR-5 24.4 µM | PC-3 26.2 µM | RPMI-8226 43.5 µM | SF-539 16.3 µM | SK-MEL-5 11.6 µM | SW-620 26.5 µM | TK-10 35.2 µM | U-251 34.8 µM | UACC-257 26.2 µM

C[C@]12CCc3nonc3C1CC[C@@H]1C2CC[C@@]2(C)C1CC[C@@H]2O (stereo partly drawn)
inactive: CAKI-1 > 100 µM | LOX IMVI > 100 µM | Malme-3M > 100 µM | NCI-H23 > 100 µM | OVCAR-5 > 100 µM | RPMI-8226 > 100 µM | RXF 393 > 100 µM | SF-539 > 100 µM | SK-MEL-5 > 100 µM | SN12C > 100 µM | SW-620 > 100 µM | TK-10 > 100 µM | U-251 > 100 µM | UACC-257 > 100 µM

CC(=O)OC1C(=O)C(O)C(C)OC1O[C@@H]1C[C@@]2(C)[C@@H]3CC=C4[C@@H](C[C@H](O)C(=O)C4(C)C)[C@]3(C)C(=O)C[C@]2(C)[C@H]1[C@@](C)(O)C(=O)/C=C/C(C)(C)O (stereo partly drawn)
inactive: CAKI-1 1.36 µM | NCI-H23 6 µM | OVCAR-5 7.29 µM | SK-MEL-5 1.47 µM | SN12C 2.61 µM | SW-620 1.12 µM | TK-10 1.85 µM | U-251 1.16 µM
active: LOX IMVI 0.706 µM | Malme-3M 1.04 µM | RPMI-8226 0.44 µM | RXF 393 0.845 µM | SF-539 0.675 µM | UACC-257 0.91 µM

C/C(COc1ccccc1)=N\NC(N)=S
inactive: CAKI-1 > 100 µM | LOX IMVI > 100 µM | Malme-3M > 100 µM | NCI-H23 > 100 µM | OVCAR-5 > 100 µM | RPMI-8226 > 100 µM | RXF 393 > 100 µM | SF-539 90.4 µM | SK-MEL-5 91.4 µM | SN12C > 100 µM | SW-620 > 100 µM | TK-10 > 100 µM | U-251 > 100 µM | UACC-257 > 100 µM

CN(/N=C/c1ccnc2ccccc12)c1c([N+](=O)[O-])cc([N+](=O)[O-])cc1[N+](=O)[O-]
inactive: CAKI-1 25.1 µM | LOX IMVI 48.2 µM | Malme-3M 31.5 µM | NCI-H23 35.1 µM | OVCAR-5 > 100 µM | RPMI-8226 26.6 µM | RXF 393 39.2 µM | SF-539 > 100 µM | SK-MEL-5 34.2 µM | SN12C > 100 µM | SW-620 38.5 µM | TK-10 > 100 µM | U-251 88.3 µM | UACC-257 > 100 µM

COC(=O)CC(C)(N[S+]([O-])c1ccc(C)cc1)c1ccccc1 (stereo not drawn)
inactive: DU-145 > 100 µM | LOX IMVI > 100 µM | MCF7 > 100 µM | MDA-MB-435 > 100 µM | MDA-N > 100 µM | Malme-3M > 100 µM | NCI-H23 > 100 µM | OVCAR-5 > 100 µM | PC-3 > 100 µM | RPMI-8226 > 100 µM | RXF 393 > 100 µM | SF-539 > 100 µM | SK-MEL-5 > 100 µM | SN12C > 100 µM | SW-620 > 100 µM | TK-10 > 100 µM | U-251 > 100 µM | UACC-257 > 100 µM

N#C/C(C(=S)NCc1ccccc1)=C(/N)N1CCCC1
inactive: CAKI-1 > 100 µM | DU-145 > 100 µM | LOX IMVI > 100 µM | MDA-MB-435 > 100 µM | MDA-N > 100 µM | Malme-3M > 100 µM | NCI-H23 > 100 µM | OVCAR-5 > 100 µM | PC-3 > 100 µM | RPMI-8226 > 100 µM | RXF 393 74.3 µM | SF-539 > 100 µM | SK-MEL-5 > 100 µM | SN12C > 100 µM | SW-620 > 100 µM | TK-10 > 100 µM | U-251 > 100 µM | UACC-257 > 100 µM

COC1(OC)C=CC2C1C1C=CC2C1(OC)OC (stereo not drawn)
inactive: CAKI-1 > 100 µM | DU-145 > 100 µM | LOX IMVI > 100 µM | MCF7 > 100 µM | MDA-MB-435 > 100 µM | Malme-3M > 100 µM | NCI-H23 > 100 µM | OVCAR-5 > 100 µM | PC-3 > 100 µM | RPMI-8226 > 100 µM | RXF 393 > 100 µM | SF-539 > 100 µM | SK-MEL-5 > 100 µM | SN12C > 100 µM | SW-620 > 100 µM | TK-10 > 100 µM | U-251 > 100 µM | UACC-257 > 100 µM

— ChEMBL document CHEMBL1201862, “PubChem BioAssay data set” (2004)
